Experimental data as given in PubChem BioAssay (NCI).
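Method: 48-hour compound exposure of cells in 96-well plates, five concentrations, linear interpolation of endpoints. TGI: concentration producing complete growth inhibition.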

Tests used:
Test in all cases: NCI tumour cell line growth inhibition, 48 h
MCF7 breast = test system: MCF7 breast
SN12C renal = test system: SN12C renal
786-0 renal = test system: 786-0 renal
UO-31 renal = test system: UO-31 renal
A549 NSCLC = test system: A549 NSCLC
SK-MEL-2 melanoma = test system: SK-MEL-2 melanoma
NCI/ADR-RES ovarian = test system: NCI/ADR-RES ovarian
OVCAR-8 ovarian = test system: OVCAR-8 ovarian
MDA-MB-435 = test system: MDA-MB-435
SF-539 CNS = test system: SF-539 CNS
SW-620 colon = test system: SW-620 colon
SNB-75 CNS = test system: SNB-75 CNS
BT-549 breast = test system: BT-549 breast
ACHN renal = test system: ACHN renal
HCC-2998 colon = test system: HCC-2998 colon
T-47D breast = test system: T-47D breast
HCT-15 colon = test system: HCT-15 colon
COLO 205 colon = test system: COLO 205 colon
K-562 leukemia = test system: K-562 leukemia
LOX IMVI melanoma = test system: LOX IMVI melanoma
MDA-N = test system: MDA-N
KM12 colon = test system: KM12 colon
DU-145 prostate = test system: DU-145 prostate
OVCAR-5 ovarian = test system: OVCAR-5 ovarian
PC-3 prostate = test system: PC-3 prostate
HCT-116 colon = test system: HCT-116 colon
M14 melanoma = test system: M14 melanoma
CCRF-CEM leukemia = test system: CCRF-CEM leukemia
TK-10 renal = test system: TK-10 renal
UACC-257 melanoma = test system: UACC-257 melanoma
HT29 colon = test system: HT29 colon
MOLT-4 leukemia = test system: MOLT-4 leukemia
UACC-62 melanoma = test system: UACC-62 melanoma
MALME-3M melanoma = test system: MALME-3M melanoma
MDA-MB-231 breast = test system: MDA-MB-231 breast
U251 CNS = test system: U251 CNS
NCI-H23 lung = test system: NCI-H23 lung
RXF 393 renal = test system: RXF 393 renal
SNB-19 CNS = test system: SNB-19 CNS
SK-MEL-28 melanoma = test system: SK-MEL-28 melanoma
NCI-H460 lung = test system: NCI-H460 lung
IGROV1 ovarian = test system: IGROV1 ovarian
NCI-H522 lung = test system: NCI-H522 lung
HOP-92 NSCLC = test system: HOP-92 NSCLC
A498 renal = test system: A498 renal
HL-60(TB) leukemia = test system: HL-60(TB) leukemia
RPMI-8226 leukemia = test system: RPMI-8226 leukemia
OVCAR-4 ovarian = test system: OVCAR-4 ovarian
EKVX NSCLC = test system: EKVX NSCLC
SR leukemia = test system: SR leukemia
CAKI-1 renal = test system: CAKI-1 renal
HS 578T breast = test system: HS 578T breast
SF-268 CNS = test system: SF-268 CNS
NCI-H226 lung = test system: NCI-H226 lung
SK-MEL-5 melanoma = test system: SK-MEL-5 melanoma
SK-OV-3 ovarian = test system: SK-OV-3 ovarian
SF-295 CNS = test system: SF-295 CNS
OVCAR-3 ovarian = test system: OVCAR-3 ovarian
HOP-62 NSCLC = test system: HOP-62 NSCLC

Compound: O=C1C(Cl)C2(CC(/C=C/c3cccs3)=NN2c2cccc(S(=O)(=O)O)c2)N1c1nc2ccccc2s1 (stereo not given)
- TGI (MCF7 breast): > 100 µM
- TGI (SN12C renal): > 100 µM
- TGI (786-0 renal): > 100 µM
- TGI (UO-31 renal): 23.8 µM
- TGI (A549 NSCLC): > 100 µM
- TGI (SK-MEL-2 melanoma): > 100 µM
- TGI (NCI/ADR-RES ovarian): > 100 µM
- TGI (OVCAR-8 ovarian): > 100 µM
- TGI (MDA-MB-435): > 100 µM
- TGI (SF-539 CNS): > 100 µM
- TGI (SW-620 colon): > 100 µM
- TGI (SNB-75 CNS): > 100 µM
- TGI (BT-549 breast): > 100 µM
- TGI (ACHN renal): > 100 µM
- TGI (HCC-2998 colon): > 100 µM
- TGI (T-47D breast): > 100 µM
- TGI (HCT-15 colon): > 100 µM
- TGI (COLO 205 colon): > 100 µM
- TGI (K-562 leukemia): > 100 µM
- TGI (LOX IMVI melanoma): > 100 µM
- TGI (MDA-N): > 100 µM
- TGI (KM12 colon): > 100 µM
- TGI (DU-145 prostate): > 100 µM
- TGI (OVCAR-5 ovarian): > 100 µM
- TGI (PC-3 prostate): > 100 µM
- TGI (HCT-116 colon): > 100 µM
- TGI (M14 melanoma): > 100 µM
- TGI (CCRF-CEM leukemia): 78.2 µM
- TGI (TK-10 renal): > 100 µM
- TGI (UACC-257 melanoma): > 100 µM
- TGI (HT29 colon): > 100 µM
- TGI (MOLT-4 leukemia): > 100 µM
- TGI (UACC-62 melanoma): > 100 µM
- TGI (MALME-3M melanoma): > 100 µM
- TGI (MDA-MB-231 breast): > 100 µM
- TGI (U251 CNS): > 100 µM
- TGI (NCI-H23 lung): > 100 µM
- TGI (RXF 393 renal): > 100 µM
- TGI (SNB-19 CNS): > 100 µM
- TGI (SK-MEL-28 melanoma): > 100 µM
- TGI (NCI-H460 lung): > 100 µM
- TGI (IGROV1 ovarian): > 100 µM
- TGI (NCI-H522 lung): 38.5 µM
- TGI (HOP-92 NSCLC): > 100 µM
- TGI (A498 renal): > 100 µM
- TGI (HL-60(TB) leukemia): > 100 µM
- TGI (RPMI-8226 leukemia): > 100 µM
- TGI (OVCAR-4 ovarian): > 100 µM
- TGI (EKVX NSCLC): > 100 µM
- TGI (SR leukemia): > 100 µM
- TGI (CAKI-1 renal): > 100 µM
- TGI (HS 578T breast): > 100 µM
- TGI (SF-268 CNS): > 100 µM
- TGI (NCI-H226 lung): > 100 µM
- TGI (SK-MEL-5 melanoma): > 100 µM

Compound: CCC(N)(C(=O)O)C(C)C (stereo not given)
- TGI (MCF7 breast): > 100 µM
- TGI (SN12C renal): > 100 µM
- TGI (786-0 renal): > 100 µM
- TGI (UO-31 renal): > 100 µM
- TGI (A549 NSCLC): > 100 µM
- TGI (SK-MEL-2 melanoma): > 100 µM
- TGI (NCI/ADR-RES ovarian): > 100 µM
- TGI (OVCAR-8 ovarian): > 100 µM
- TGI (MDA-MB-435): > 100 µM
- TGI (SF-539 CNS): > 100 µM
- TGI (SW-620 colon): > 100 µM
- TGI (SNB-75 CNS): > 100 µM
- TGI (BT-549 breast): > 100 µM
- TGI (ACHN renal): > 100 µM
- TGI (HCC-2998 colon): > 100 µM
- TGI (T-47D breast): > 100 µM
- TGI (HCT-15 colon): > 100 µM
- TGI (COLO 205 colon): > 100 µM
- TGI (K-562 leukemia): > 100 µM
- TGI (LOX IMVI melanoma): > 100 µM
- TGI (MDA-N): > 100 µM
- TGI (KM12 colon): > 100 µM
- TGI (DU-145 prostate): > 100 µM
- TGI (OVCAR-5 ovarian): > 100 µM
- TGI (PC-3 prostate): > 100 µM
- TGI (HCT-116 colon): > 100 µM
- TGI (SK-OV-3 ovarian): > 100 µM
- TGI (M14 melanoma): > 100 µM
- TGI (SF-295 CNS): > 100 µM
- TGI (CCRF-CEM leukemia): > 100 µM
- TGI (TK-10 renal): > 100 µM
- TGI (UACC-257 melanoma): > 100 µM
- TGI (HT29 colon): > 100 µM
- TGI (UACC-62 melanoma): > 100 µM
- TGI (MALME-3M melanoma): > 100 µM
- TGI (MDA-MB-231 breast): > 100 µM
- TGI (U251 CNS): > 100 µM
- TGI (NCI-H23 lung): > 100 µM
- TGI (RXF 393 renal): > 100 µM
- TGI (SNB-19 CNS): > 100 µM
- TGI (SK-MEL-28 melanoma): > 100 µM
- TGI (NCI-H460 lung): > 100 µM
- TGI (IGROV1 ovarian): > 100 µM
- TGI (NCI-H522 lung): > 100 µM
- TGI (HOP-92 NSCLC): > 100 µM
- TGI (A498 renal): > 100 µM
- TGI (HL-60(TB) leukemia): > 100 µM
- TGI (RPMI-8226 leukemia): > 100 µM
- TGI (OVCAR-4 ovarian): > 100 µM
- TGI (OVCAR-3 ovarian): > 100 µM
- TGI (EKVX NSCLC): > 100 µM
- TGI (HOP-62 NSCLC): > 100 µM
- TGI (SR leukemia): > 100 µM
- TGI (CAKI-1 renal): > 100 µM
- TGI (HS 578T breast): > 100 µM
- TGI (SF-268 CNS): > 100 µM
- TGI (NCI-H226 lung): > 100 µM
- TGI (SK-MEL-5 melanoma): > 100 µM

Compound: COc1ccc(-c2cc(=O)c3c(O)cc(O)cc3o2)cc1OC
- TGI (MCF7 breast): > 100 µM
- TGI (SN12C renal): > 100 µM
- TGI (786-0 renal): > 100 µM
- TGI (UO-31 renal): > 100 µM
- TGI (A549 NSCLC): > 100 µM
- TGI (SK-MEL-2 melanoma): > 100 µM
- TGI (NCI/ADR-RES ovarian): > 100 µM
- TGI (MDA-MB-435): > 100 µM
- TGI (SF-539 CNS): > 100 µM
- TGI (SW-620 colon): > 100 µM
- TGI (SNB-75 CNS): 37.1 µM
- TGI (BT-549 breast): > 100 µM
- TGI (ACHN renal): > 100 µM
- TGI (HCC-2998 colon): > 100 µM
- TGI (T-47D breast): > 100 µM
- TGI (HCT-15 colon): > 100 µM
- TGI (COLO 205 colon): > 100 µM
- TGI (K-562 leukemia): > 100 µM
- TGI (LOX IMVI melanoma): > 100 µM
- TGI (MDA-N): > 100 µM
- TGI (KM12 colon): > 100 µM
- TGI (DU-145 prostate): > 100 µM
- TGI (OVCAR-5 ovarian): > 100 µM
- TGI (PC-3 prostate): > 100 µM
- TGI (HCT-116 colon): > 100 µM
- TGI (SK-OV-3 ovarian): > 100 µM
- TGI (M14 melanoma): > 100 µM
- TGI (SF-295 CNS): > 100 µM
- TGI (CCRF-CEM leukemia): > 100 µM
- TGI (TK-10 renal): > 100 µM
- TGI (UACC-257 melanoma): > 100 µM
- TGI (HT29 colon): > 100 µM
- TGI (MOLT-4 leukemia): > 100 µM
- TGI (UACC-62 melanoma): > 100 µM
- TGI (MALME-3M melanoma): > 100 µM
- TGI (MDA-MB-231 breast): > 100 µM
- TGI (U251 CNS): > 100 µM
- TGI (NCI-H23 lung): > 100 µM
- TGI (RXF 393 renal): > 100 µM
- TGI (SNB-19 CNS): > 100 µM
- TGI (SK-MEL-28 melanoma): > 100 µM
- TGI (NCI-H460 lung): > 100 µM
- TGI (IGROV1 ovarian): > 100 µM
- TGI (NCI-H522 lung): 59.1 µM
- TGI (HOP-92 NSCLC): 16.4 µM
- TGI (A498 renal): 45.2 µM
- TGI (HL-60(TB) leukemia): > 100 µM
- TGI (RPMI-8226 leukemia): > 100 µM
- TGI (OVCAR-4 ovarian): > 100 µM
- TGI (OVCAR-3 ovarian): > 100 µM
- TGI (EKVX NSCLC): > 100 µM
- TGI (HOP-62 NSCLC): > 100 µM
- TGI (SR leukemia): 33.5 µM
- TGI (HS 578T breast): > 100 µM
- TGI (SF-268 CNS): > 100 µM
- TGI (NCI-H226 lung): > 100 µM
- TGI (SK-MEL-5 melanoma): > 100 µM
